Laboratory results as given in patent US11872226B2, “N-benzyl-2-phenoxybenzamide derivatives as prostaglandin E2 (PGE2) receptors modulators” (MEDIBIOFARMA, S.L., priority 2019, dated 2024).

How the values were obtained:
[1] = target: T1, human EP2 receptor (Homo sapiens, UniProt P43116); assay: Competition binding in human EP2 receptor; details: [3H]-Prostaglandin E2 competition, membranes from EP2 cell line
T1 construct: purchased Millipore HTS185M
Description: (§1) The compounds of the present invention were assayed for binding at human EP1, EP2, EP3 and EP4 receptors and were tested at several concentrations for IC50 determination.
Competition Binding in Human EP2 Receptor:
Prostaglandin EP2 receptor competition binding experiments were carried out in a polypropylene 96-well microplate plate with binding buffer (Hepes 50 mM, CaCl2 1 mM, MgCl2 5 mM, pH=7.4). In each well was incubated 10 μg of membranes from EP2 cell line (Millipore HTS185M, protein concentration=2000 μg/ml), 7.5 nM [3H]-Prostaglandin E2 (169.8 Ci/mmol, 0.1 mCi/ml, Perkin Elmer NET428250UC) and compounds studied and standard. Non-specific binding was determined in the presence of PGE2 200 μM (Cayman 14010). The reaction mixture (Vt: 250 μl/well) was incubated at 25° C. for 90 min, 200 μL was transferred to GF/C 96-well plate (Millipore, Madrid, Spain) after was filtered and washed four times with 250 μl wash buffer (Hepes 50 mM, NaCl 500 mM, pH=7.4), before measuring in a microplate beta scintillation counter (Microbeta Trilux, Perkin Elmer, Madrid, Spain). (Wilson et al., Br J Pharmacol 2006; 148:326-339).
(§2) The inhibition constants (Ki) were calculated using the Cheng Prusoff equation
(§3) [formula] where L=concentration of radioligand in the assay, and KD=affinity of the radioligand for the receptor. A scatchard plot is used to determine the KD.

[2] = target: T2, human EP4 receptor (Homo sapiens, UniProt P35408); assay: Competition binding in human EP4 receptor; details: [3H]-Prostaglandin E2 competition, membranes from HEK-EP4 cell line
T2 construct: expressed in transfected cells; host or cells: HEK-EP4 cell line; membranes prepared in house
Description: as §1
Competition Binding in Human EP4 Receptor:
Prostaglandin EP4 receptor competition binding experiments were carried out in a multiscreen GF/B 96-well plate (Millipore, Madrid, Spain) pretreated with binding buffer (Mes 25 mM, EDTA 1 mM, MgCl2 10 mM, pH=6.0). In each well was incubated 35 μg of membranes from HEK-EP4 cell line and prepared in our laboratory (Lot: A003/27-04-2011, protein concentration=2803 μg/ml), 1 nM [3H]-Prostaglandin E2 (169.8 Ci/mmol, 0.1 mCi/ml, Perkin Elmer NET428250UC) and compounds studied and standard. Non-specific binding was determined in the presence of PGE2 10 μM (Cayman 14010). The reaction mixture (Vt: 250 μl/well) was incubated at 25° C. for 120 min, 200 μL was transferred to GF/B 96-well plate (Millipore, Madrid, Spain) after was filtered and washed six times with 250 μl wash buffer (Mes 25 mM, BSA 0.01%, pH=6.0), before measuring in a microplate beta scintillation counter (Microbeta Trilux, Perkin Elmer, Madrid, Spain). (Abramovitz et al., Biochim Biophys Acta 2000; 1483:285-293).
as §2, §3

T1 sequence (P43116 whole entry): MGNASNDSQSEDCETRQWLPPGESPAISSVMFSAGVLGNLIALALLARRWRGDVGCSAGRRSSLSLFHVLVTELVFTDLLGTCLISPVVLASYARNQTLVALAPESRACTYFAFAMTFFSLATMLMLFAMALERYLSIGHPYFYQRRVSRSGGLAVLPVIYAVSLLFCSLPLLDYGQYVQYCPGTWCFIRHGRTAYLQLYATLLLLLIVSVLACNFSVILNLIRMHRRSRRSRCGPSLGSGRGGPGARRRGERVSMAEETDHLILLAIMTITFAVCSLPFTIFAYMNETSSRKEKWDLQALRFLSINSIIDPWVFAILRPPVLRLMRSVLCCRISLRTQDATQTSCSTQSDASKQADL
T2 sequence (P35408 whole entry): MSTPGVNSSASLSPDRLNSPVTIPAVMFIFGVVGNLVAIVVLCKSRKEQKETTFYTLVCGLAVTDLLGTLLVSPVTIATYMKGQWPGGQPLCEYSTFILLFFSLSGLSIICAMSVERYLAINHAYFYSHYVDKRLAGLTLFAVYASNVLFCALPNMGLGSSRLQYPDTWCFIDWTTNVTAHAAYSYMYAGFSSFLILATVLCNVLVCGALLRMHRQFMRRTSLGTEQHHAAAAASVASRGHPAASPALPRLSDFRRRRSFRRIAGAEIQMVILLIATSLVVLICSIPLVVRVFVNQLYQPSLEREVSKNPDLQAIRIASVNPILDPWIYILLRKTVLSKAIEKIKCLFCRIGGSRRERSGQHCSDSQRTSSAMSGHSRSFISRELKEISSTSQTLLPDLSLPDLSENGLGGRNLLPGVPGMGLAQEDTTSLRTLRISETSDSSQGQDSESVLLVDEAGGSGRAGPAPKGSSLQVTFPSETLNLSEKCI

Structure (SMILES) | Ki [1] | Ki [2]
O=C(O)c1ccc(CNC(=O)c2cc(-c3ccncc3)ccc2Oc2ccc(F)cc2)cc1 [Example 1, 4-((2-(4-fluorophenoxy)-5-(pyridin-4-yl)benzamido)methyl)benzoic acid] | ≥ 10 µM | < 0.1 µM
O=C(O)c1ccc(CNC(=O)c2cc(-c3ccccc3)ccc2Oc2ccc(F)cc2)cc1 [Example 2, 4-((4-(4-fluorophenoxy)-[1,1′-biphenyl]-3-carboxamido)methyl)benzoic acid] | ≥ 10 µM | < 0.1 µM
O=C(O)c1ccc(CNC(=O)c2cc(-c3ccc(Cl)cc3)ccc2Oc2ccc(F)cc2)cc1 [Example 3, 4-((4′-chloro-4-(4-fluorophenoxy)-[1,1′-biphenyl]-3-carboxamido)methyl) benzoic acid] | ≥ 10 µM | < 0.1 µM
O=C(O)c1ccc(CNC(=O)c2cc(-c3ccc(F)cc3)ccc2Oc2ccc(F)cc2)cc1 [Example 4, 4-((4′-fluoro-4-(4-fluorophenoxy)-[1,1′-biphenyl]-3-carboxamido)methyl) benzoic acid] | < 0.1 µM | < 0.1 µM
O=C(O)c1ccc(CNC(=O)c2cc(-c3cccc(F)c3)ccc2Oc2ccc(F)cc2)cc1 [Example 5, 4-((3′-fluoro-4-(4-fluorophenoxy)-[1,1′-biphenyl]-3-carboxamido)methyl) benzoic acid] | < 0.1 µM | < 0.1 µM
O=C(O)c1ccc(CNC(=O)c2cc(-c3ccccc3F)ccc2Oc2ccc(F)cc2)cc1 [Example 6, 4-((2′-fluoro-4-(4-fluorophenoxy)-[1,1′-biphenyl]-3-carboxamido)methyl) benzoic acid] | 1 to 10 µM | < 0.1 µM
N#Cc1ccc(-c2ccc(Oc3ccc(F)cc3)c(C(=O)NCc3ccc(C(=O)O)cc3)c2)cc1 [Example 7, 4-((4′-cyano-4-(4-fluorophenoxy)-[1,1′-biphenyl]-3-carboxamido)methyl) benzoic acid] | 1 to 10 µM | < 0.1 µM
N#Cc1cccc(-c2ccc(Oc3ccc(F)cc3)c(C(=O)NCc3ccc(C(=O)O)cc3)c2)c1 [Example 8, 4-((3′-cyano-4-(4-fluorophenoxy)-[1,1′-biphenyl]-3-carboxamido)methyl) benzoic acid] | < 0.1 µM | < 0.1 µM
O=C(O)c1ccc(CNC(=O)c2cc(-c3ccncc3F)ccc2Oc2ccc(F)cc2)cc1 [Example 9, 4-((2-(4-fluorophenoxy)-5-(3-fluoropyridin-4-yl)benzamido)methyl)benzoic acid] | 1 to 10 µM | < 0.1 µM
O=C(O)c1ccc(CNC(=O)c2cc(-c3cccnc3)ccc2Oc2ccc(F)cc2)cc1 [Example 10, 4-((2-(4-fluorophenoxy)-5-(pyridin-3-yl)benzamido)methyl)benzoic acid] | 1 to 10 µM | < 0.1 µM
O=C(O)c1ccc(CNC(=O)c2cc(-c3ccncc3Cl)ccc2Oc2ccc(F)cc2)cc1 [Example 11, 4-((2-(4-fluorophenoxy)-5-(3-chloropyridin-4-yl)benzamido)methyl)benzoic acid] | ≥ 10 µM | 0.1 to 1 µM
O=C(O)c1ccc(CNC(=O)c2cc(-c3cncnc3)ccc2Oc2ccc(F)cc2)cc1 [Example 12, 4-((2-(4-fluorophenoxy)-5-(pyrimidin-5-yl)benzamido)methyl)benzoic acid] | ≥ 10 µM | 0.1 to 1 µM
O=C(O)c1ccc(CNC(=O)c2cc(-c3ccc(F)c(F)c3)ccc2Oc2ccc(F)cc2)cc1 [Example 13, 4-((3′,4′-difluoro-4-(4-fluorophenoxy)-[1,1′-biphenyl]-3-carboxamido)methyl)benzoic acid] | < 0.1 µM | 0.1 to 1 µM
O=C(O)c1ccc(CNC(=O)c2cc(-c3ccc(C(F)(F)F)cc3)ccc2Oc2ccc(F)cc2)cc1 [Example 14, 4-((4-(4-fluorophenoxy)-4′-(trifluoromethyl)-[1,1′-biphenyl]-3-carboxamido)methyl)benzoic acid] | 0.1 to 1 µM | 1 to 10 µM
O=C(O)c1ccc(CNC(=O)c2cc(-c3cccc(C(F)(F)F)c3)ccc2Oc2ccc(F)cc2)cc1 [Example 15, 4-((4-(4-fluorophenoxy)-3′-(trifluoromethyl)-[1,1′-biphenyl]-3-carboxamido)methyl)benzoic acid] | < 0.1 µM | < 0.1 µM
O=C(O)c1ccc(CNC(=O)c2cc(-c3cccs3)ccc2Oc2ccc(F)cc2)cc1 [Example 18, 4-((2-(4-fluorophenoxy)-5-(thiophen-2-yl)benzamido)methyl)benzoic acid] | 1 to 10 µM | < 0.1 µM
O=C(O)c1ccc(CNC(=O)c2cc(-c3cc(F)cc(F)c3)ccc2Oc2ccc(F)cc2)cc1 [Example 19, 4-((3′,5′-difluoro-4-(4-fluorophenoxy)-[1,1′-biphenyl]-3-carboxamido)methyl)benzoic acid] | < 0.1 µM | < 0.1 µM
O=C(O)c1ccc(CNC(=O)c2cc(-c3cccc(Cl)c3)ccc2Oc2ccc(F)cc2)cc1 [Example 20, 4-((3′-chloro-4-(4-fluorophenoxy)-[1,1′-biphenyl]-3-carboxamido)methyl) benzoic acid] | 1 to 10 µM | < 0.1 µM
O=C(O)c1ccc(CNC(=O)c2cc(-c3cc(F)cc(C(F)(F)F)c3)ccc2Oc2ccc(F)cc2)cc1 [Example 21, 4-((3′-fluoro-4-(4-fluorophenoxy)-5′-(trifluoromethyl)-[1,1′-biphenyl]-3-carboxamido)methyl)benzoic acid] | < 0.1 µM | < 0.1 µM
O=C(O)c1ccc(CNC(=O)c2cc(-c3cccc(-c4ccncc4)c3)ccc2Oc2ccc(F)cc2)cc1 [Example 26, 4-((4-(4-fluorophenoxy)-3′-(pyridin-4-yl)-[1,1′-biphenyl]-3-ylcarboxamido)methyl)benzoic acid] | ≥ 10 µM | < 0.1 µM
NC(=O)c1ccc(-c2ccc(Oc3ccc(F)cc3)c(C(=O)NCc3ccc(C(=O)O)cc3)c2)o1 [Example 27, 4-((5-(5-carbamoylfuran-2-yl)-2-(4-fluorophenoxy)benzamido)methyl) benzoic acid] | 1 to 10 µM | 1 to 10 µM
O=C(O)c1ccc(CNC(=O)c2cc(-c3cccc(C(F)(F)F)c3)ccc2Oc2ccc(F)cc2)c(F)c1 [Example 28, 3-fluoro-4-((4-(4-fluorophenoxy)-3′-(trifluoromethyl)-[1,1′-biphenyl]-3-ylcarboxamido)methyl)benzoic acid] | 1 to 10 µM | < 0.1 µM
C[C@@H](NC(=O)c1cc(-c2cccc(C(F)(F)F)c2)ccc1Oc1ccc(F)cc1)c1ccc(C(=O)O)cc1 [Example 29, (R)-4-(1-(4-(4-fluorophenoxy)-3′-(trifluoromethyl)-[1,1′-biphenyl]-3-carboxamido)ethyl)benzoic acid] | 1 to 10 µM | < 0.1 µM
O=C(O)c1ccc(C2(NC(=O)c3cc(-c4cccc(C(F)(F)F)c4)ccc3Oc3ccc(F)cc3)CC2)cc1 [Example 30, 4-(1-(4-(4-fluorophenoxy)-3′-(trifluoromethyl)-[1,1′-biphenyl]-3-carboxamido)cyclopropyl)benzoic acid] | 1 to 10 µM | < 0.1 µM
N#Cc1cc(F)cc(-c2ccc(Oc3ccc(F)cc3)c(C(=O)NCc3ccc(C(=O)O)cc3)c2)c1 [Example 31, 4-((3′-fluoro-5′-cyano-4-(4-fluorophenoxy)-[1,1′-biphenyl]-3-carboxamido)methyl)benzoic acid] | 1 to 10 µM | < 0.1 µM
N#Cc1cc(Cl)cc(-c2ccc(Oc3ccc(F)cc3)c(C(=O)NCc3ccc(C(=O)O)cc3)c2)c1 [Example 32, 4-((3′-chloro-5′-cyano-4-(4-fluorophenoxy)-[1,1′-biphenyl]-3-carboxamido)methyl)benzoic acid] | 1 to 10 µM | < 0.1 µM
